Data: patent US20050053921A1, “Systems for screening anti-hepatitis drugs” (priority 2003, published 2005)

What was measured:
[1] = biological target: T1, NS3/4A protease in Ava5-EG(Δ4AB)SEAP cells (Hepatitis C virus genotype 1b, UniProt Q9WMX2); test: SEAP activity in medium of stable Ava5-EG(Δ4AB)SEAP cells; assay type: cell-based, HCV; settings: for extracellular SEAP activity: TPCK 0-40 μM or IFN-γ 0-100 I.U./ml
T1 construct: Ava5 cells expressed endogenous NS3/4A protease; endogenous in cells; host or cells: Ava5 cells (Huh-7 carrying an HCV subgenomic replicon)
Experimental: (§1) After the cotransfection, culture media and cell lysates were harvested at 12-hour intervals. The SEAP activity in the culture medium and the β-galactosidase activity in the cell lysates were measured using Phospha-Light and Galacto-Star assay kits (Tropix, Foster, Calif., USA), respectively. The respective chemiluminescent intensities were detected by a Top Counter Microplate Scintillation and Luminescence Counter (Packard, Meriden, Conn., USA). The intensities reflected the relative activities of SEAP and […]. In these experiments, the β-gal activity was used to normalize transfection efficiency according standard techniques. Meanwhile, fluorescence emitted from the green fluorescent protein was examined using a fluorescence microscope (Nikon DIAPHOT 300).
Huh-7 or Ava5 cells were seeded in 24-well plates at a density of 2×10^4 cells per well. After incubation at 37° C. overnight, the cells were transduced with serial dilutions of lentiviral particles in the presence of 6 μg/ml polybrene (Sigma, St. Louis, Mo., USA) in the manner described above. After incubation for 24 hours, the virus-containing medium was replaced by a fresh medium and the cells were incubated for another 2 days. The cells were then selected in the presence of 10 μg/ml of blasticidin for 3-4 weeks.
One blasticidin-resistant Huh-7 clone and two blasticidin-resistant Ava5 clones were obtained. Cell lines thus produced were designated as Huh-7-EG(Δ4AB)SEAP and […], respectively. The cells were then examined for expression of EG(Δ4AB)SEAP and the amount NS3 protein by Western blot analysis using anti-EGFP antibody and anti-NS3 antibody, respectively. […] They also expressed free EGFP, resulting from the cleavage of the EG(Δ4AB)SEAP by NS3/4A protease. In naive Huh-7 and Ava5 cells, neither free EGFP nor NS3 could be detected.
(§2) Ava5-EG(Δ4AB)SEAP clone 1 was further treated by IFN-α (0-50 units/ml) in the manner described above. They, the cells were examined for cellular NS3/4A protein and HCV RNA levels by western blot and dot blot, respectively. The dot blot was conducted as follows: RNA was extracted using TRIZOL reagent (Invitrogen). Three micrograms of RNA was dissolved in 100 μl of TE buffer (10 mM Tris-HCl, 1 mM EDTA, pH 7.5) and 60 μl of 20×SSC, and 40 μl of 37% formaldehyde stock solution were added. The samples were incubated at 60° C. for 15 min and then applied to pre-wetted nylon membrane using an S&S Minifold® I dot-blot device (Schleicher & Schuell GmbH, Relliehausen, Germany). Each well was washed twice with 6×SSC. Bound RNA was immobilized onto the membrane by UV-cross linking (Stratagene, La Jolla, Calif., USA) under the autocross-link condition, then hybridization and counting were conducted as described (Lee et al., 2003. Anal. Biochem.316, 162-170a). The membrane was probed with NS5B gene fragment of HCV labeled with […] by rediprime II random primer labeling system (Amersham Biosciences, Buckinghamshire, England). The blots were visualized by autoradiography and intensities of the blots were measured by densitometry (UVP GDS-8000 BioImaging System, Upland, Calif., USA).
The just-described cell line was used to examined several other known anti-HCV compounds, such as an NS3/4A inhibitor, N-tosyl-1-phenylalanine chloromethyl ketone (TPCK) (Berdichevsky et al., 2003, J. Virol. Methods 107, 245-255.), and IFN-γ (Frese et al., 2002, Hepatology 35, 694-703.). […]

[2] = system: endogenous NS3/4A protease in Ava5 cells; test: SEAP activity in medium of Ava5 cells transiently transfected with EG(Δ4AB)SEAP; assay type: cell-based, HCV; settings: 100 IU/ml
Experimental: as §1
Ava5 cells expressed endogenous NS3/4A protease. […] Western blotting was also conducted in the same manner.

[3] = system: HCV subgenomic replicons (HCV RNA); test: HCV RNA level by Northern hybridization in Ava5 cells expressing EG(Δ4AB)SEAP; assay type: cell-based; settings: 100 IU/ml
[4] = system: HCV NS3 protease; settings: 100 IU/ml, Ava5 cells, especially after 3 days of treatment
Experimental: They were maintained in DMEM/10% FBS/1 mg/ml G418 (Geneticin) and DMEM/10% FBS, respectively. Ava5 cells expressed endogenous NS3/4A protease. The above-described dual-reporter construct was transient transfected into the cells in the same manner descried above except that FuGENE 6 (Roche), instead of LipofectamineTM was used. Western blotting was also conducted in the same manner.
Ava5 cells expressing EG(Δ4AB)SEAP were then tested for the ability to screen for HCV protease inhibitors. More specifically, the cells were treated with IFN-α (Schering-Plough Corp., Kenilworth, N.J., USA) and examined for the SEAP activity in their medium in the manner described above.
The protein level of NS3 protease was also determined by standard techniques.

[5] = system: HCV RNA; test: HCV RNA level by dot blot in Ava5-EG(Δ4AB)SEAP clone 1; assay type: cell-based; settings: 0-50 units/ml
Experimental: as §2

[6] = system: NS3/4A protein; test: Cellular NS3/4A protein level by western blot in Ava5-EG(Δ4AB)SEAP clone 1; assay type: cell-based, HCV; settings: 0-50 units/ml
Experimental: as §2

[7] = system: 293P-EG(Δ4AB)SEAP-NS3/4A cells; test: MTS cellular toxicity assay; assay type: cell-based; settings: concentration up to 10 μM
[8] = biological target: NS3/4A protease (Hepatitis C virus genotype 1a, UniProt P27958); test: cell-based; parameters: species or system HCV type 1a
Experimental: One of the cloned cell lines was further infected with the lentiviral vector encoding NS 3/4A gene. After zeocin selection (250 μg/ml) for 3 to 4 weeks, one zoscine-resistant clone was obtained. This cell line was confirmed by Western blot to express both NS3/4A protease and EG(D4AB)SEAP, and therefore designated as 293P-EG(Δ4AB)SEAP-NS3/4A.
More specifically, 293P-EG(Δ4AB)SEAP-NS3/4A cells were seeded in 96-well plates (1.5×10^4 cells per well) and cultured at 37° C. overnight. […] Two days later, the culture medium in each well was replaced with fresh phenol red-free DMEM/10% FBS containing the same concentration of drugs. After another day, the culture medium was collected and the SEAP activity was measured using a Phospha-Light assay kit (Tropix, Foster City, Calif., USA) according to manufacturer's instruction.

[9] = Ava5-EG(Δ4AB)SEAP cells, 72 hours

T1 sequence (Q9WMX2 1027-1657, stated change not applied): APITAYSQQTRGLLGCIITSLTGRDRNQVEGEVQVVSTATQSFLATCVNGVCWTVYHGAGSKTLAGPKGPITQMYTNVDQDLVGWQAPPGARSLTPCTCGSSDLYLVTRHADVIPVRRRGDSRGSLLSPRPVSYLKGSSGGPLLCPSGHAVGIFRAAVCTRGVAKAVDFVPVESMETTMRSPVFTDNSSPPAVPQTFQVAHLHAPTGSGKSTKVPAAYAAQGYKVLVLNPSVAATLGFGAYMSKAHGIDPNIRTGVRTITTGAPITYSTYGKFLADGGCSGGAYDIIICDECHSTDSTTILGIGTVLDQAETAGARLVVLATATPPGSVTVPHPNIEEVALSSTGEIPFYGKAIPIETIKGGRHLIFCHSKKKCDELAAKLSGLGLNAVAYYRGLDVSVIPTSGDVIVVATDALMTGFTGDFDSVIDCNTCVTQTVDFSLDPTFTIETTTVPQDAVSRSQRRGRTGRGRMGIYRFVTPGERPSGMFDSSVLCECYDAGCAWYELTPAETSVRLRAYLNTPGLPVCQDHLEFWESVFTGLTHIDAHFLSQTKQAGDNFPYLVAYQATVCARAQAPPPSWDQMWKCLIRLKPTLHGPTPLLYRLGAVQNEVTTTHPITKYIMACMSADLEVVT
T1 sequence (Q9WMX2 1658-1711, stated change not applied): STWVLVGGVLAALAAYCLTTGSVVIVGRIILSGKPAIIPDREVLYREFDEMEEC
NS3/4A protease, sequence (P27958 1027-1657): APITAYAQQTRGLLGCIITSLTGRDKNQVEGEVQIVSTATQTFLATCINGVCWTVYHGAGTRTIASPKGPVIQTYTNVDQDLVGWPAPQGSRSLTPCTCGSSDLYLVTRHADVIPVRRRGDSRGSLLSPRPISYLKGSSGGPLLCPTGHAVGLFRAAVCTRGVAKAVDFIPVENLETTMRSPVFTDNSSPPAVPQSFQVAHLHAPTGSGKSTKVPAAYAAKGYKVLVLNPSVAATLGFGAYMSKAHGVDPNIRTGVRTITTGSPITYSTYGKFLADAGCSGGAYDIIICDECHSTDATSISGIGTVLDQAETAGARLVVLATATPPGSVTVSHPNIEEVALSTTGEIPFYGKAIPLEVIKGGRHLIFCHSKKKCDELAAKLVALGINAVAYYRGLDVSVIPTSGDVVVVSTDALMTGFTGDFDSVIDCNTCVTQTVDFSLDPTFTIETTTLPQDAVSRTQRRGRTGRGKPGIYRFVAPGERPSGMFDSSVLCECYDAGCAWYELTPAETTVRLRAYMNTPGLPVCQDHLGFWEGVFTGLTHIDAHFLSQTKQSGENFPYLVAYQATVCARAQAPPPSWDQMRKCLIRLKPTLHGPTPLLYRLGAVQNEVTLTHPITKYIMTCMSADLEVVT
NS3/4A protease, sequence (P27958 1658-1711): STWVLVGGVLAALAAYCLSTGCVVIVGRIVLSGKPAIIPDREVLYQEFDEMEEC
NS3/4A protein, sequence (Q9WMX2 1027-1657): as the sequence (Q9WMX2 1027-1657, stated change not applied) above
HCV NS3 protease, sequence (Q9WMX2 1027-1657): as the sequence (Q9WMX2 1027-1657, stated change not applied) above
endogenous NS3/4A protease in Ava5 cells, sequence (Q9WMX2 1027-1657): as the sequence (Q9WMX2 1027-1657, stated change not applied) above

Cc1ccc(S(=O)(=O)N[C@@H](Cc2ccccc2)C(=O)CCl)cc1 [TPCK, N-tosyl-1-phenylalanine chloromethyl ketone, reference compound]
extracellular SEAP activity [1, 9]: dose-dependent decrease
suppression of HCV replication ([1]; at 0.2 μM, Ava5-EG(Δ4AB)SEAP cells, 72 hours): more than 50%

IFN-α
SEAP activity in the culture medium [2]: decreased
RNA levels of gadph (housekeeping gene) [3]: remained the same
HCV RNA levels ([3]; especially after 3 days of treatment): declined
HCV NS3 protease levels [4]: declined
HCV RNA level (dot blot) [5]: decreased
cellular NS3/4A protein level (western blot) [6]: decreased
SEAP activity in the culture medium ([1]; 0-50 units/ml, Ava5-EG(Δ4AB)SEAP clone 1): decreased

COc1ccc2c(O[C@@H]3C[C@H]4C(=O)N[C@]5(C(=O)O)C[C@H]5/C=C\CCCCC[C@H](NC(=O)OC5CCCC5)C(=O)N4C3)cc(-c3csc(NC(C)C)n3)nc2c1 [BILN-2061]
cellular toxicity as measured by MTS assay [7]: did not cause detectable cellular toxicity
EC50 [8]: ~2 nM

B1: IFN-γ: IFN-γ, known anti-HCV compound (Frese et al., 2002) (protein, UniProt P01579 24-161, looked up)
Interferon gamma: QDPYVKEAENLKKYFNAGHSDVADNGTLFLGILKNWKEESDRKIMQSQIVSFYFKLFKNFKDDQSIQKSVETIKEDMNVKFFNSNKKKRDDFEKLTNYSVTDLNVQRKAIHELIQVMAELSPAAKTGKRKRSQMLFRG
extracellular SEAP activity [1, 9]: repressed
EC50 (effective concentration for 50% inhibition) ([1]; extracellular SEAP activity, Ava5-EG(Δ4AB)SEAP cells, 72 hours): below 10 IU/ml
